Assay results reported in patent US10233198B2, “Pro-drugs of NSAIAs with very high skin and membranes penetration rates and their new medicinal uses” (Techfields Pharma Co., Ltd., priority 2007, dated 2019).

How the values were obtained:
[1] = In vivo penetration through skin of intact rats; distribution in plasma and tissues
[2] = test system: human colon cancer cells (LS174J); assay: Anti-tumor activity, human colon cancer xenograft in nude mice, topical; details: for Weight of nude mice: day 30, about 30 μl of 5% (1.5 mg) topically every 8 hours
Protocol: In the second anti-tumor experiment, human colon cancer cells (LS174J, 2-3 mm^3 of tumor tissue was used in each mouse) were subcutaneously xenografted into nude mice (BALB). After 7 days, the tumors were growing to the size of 55±10 mm^3 (0.055 ml). Then about 30 μl of 5% (equal to 1.5 mg of the pro-drugs) diethylaminoethyl acetylsalicylate.acetylsalicylic acid salt (P-1, in acetone); 1-piperidinepropyl 2[(2,6-dichlorophenyl)amino]benzene acetate.AcOH (P-2, in water), 1-pyrrolidinepropyl 2-(3-benzoylphenyl) propionate.AcOH (P-3, in water), 4-piperidinemethyl 2-(3-phenoxyphenyl)propionate.AcOH (P-4, in water), 3-piperidinemethyl 2-(ρ-isobutylphenyl) propionate.AcOH (P-5, in water), diethylaminoethyl 1-methyl-5-(4-methylbenzoyl)-1H-pyrrole-2-acetate.AcOH (P-13, in water), 2-(4-morpholinyl)ethyl 2-amino-3-benzoylbenzeneacetateAcOH (P-16, in water), diethylaminoethyl 2-(10,11-dihydro-10-oxodibenzo(b,f)thiepin-2-yl)propionate.AcOH (P-36), diethylaminoethyl 2-[(2,3-dimethylphenypamino]benzoate.AcOH (P-46, in water), diethylaminoethyl 2-[(2,6-dichloro-3-methylphenyl)amino]benzoate.AcOH (P47, in water), N-(2-thiazoyl)-4-N,N-dimethylaminobutyryloxy-2-methyl-2H,1,2-benzothiazine-3-car boxamide 1,1-dioxide.HCl (P-52, in acetone) was topically applied to the human colon cancer cells-implanted area (near the front leg) every 8 hours.

[3] = test system: human breast cancer cells (BCAP-37); assay: Anti-tumor activity, human breast cancer xenograft in nude mice, topical; details: day 42; 30 μl of 5% (1.5 mg) topically every 8 hours; BCAP-37 xenograft; in g (unit assumed)
Protocol: For evaluation of anti-tumor activity of the pro-drugs of NSAIAs, human breast cancer cells (BCAP-37, 2-3 mm^3 of tumor tissue was used in each mouse) were subcutaneously xenografted into nude mice (BALE, 12 groups, 7 mice each group). After 14 days, the tumors were growing to the size of 50±10 mm^3 (0.05 ml). Then 30 μl of 5% (equal to 1.5 mg of the pro-drugs) diethylaminoethyl acetylsalicylate.acetylsalicylic acid salt (P-1, in acetone); 1-piperidinepropyl 2[(2,6-dichlorophenyl)amino]benzene acetate.AcOH (P-2, in water), 1-pyrrolidinepropyl 2-(3-benzoylphenyl) propionate.AcOH (P-3, in water), 4-piperidinemethyl 2-(3-phenoxyphenyl)propionate.AcOH (P-4, in water), 3-piperidinemethyl 2-(ρ-isobutylphenyl) propionate.AcOH (P-5, in water), diethylaminoethyl 1-(p-chlorobenzoyl)-5-methoxy-2-methylindole 3-acetate.AcOH (P-11, in water), 2-(4-morpholinyl)ethyl (Z)-5-fluoro-2-methyl-1-[(4-methylsulfinyl) phenylmethylene]-1H-indene-3-acetate.AcOH (P-12, in water), diethylaminoethyl 2-(2,4-dichlorophenoxy)benzeneacetate.AcOH (P-19, in water), diethylaminoethyl 2-(8-methyl-10, 11-dihydro-11-oxodibenz(b,f)oxepin-2-yl)propionate.AcOH (P-37, in water), 1-pyrrolidinepropyl 2-[[(3-(trifluoromethyl)phenyl)amino]benzoate.AcOH (P-48, in water), 4-N,N-dimethylaminobutyryloxy-2-methyl-N-2-pyridinyl-2H,1,2-benzothiazine-3-carb oxamide 1,1-dioxide.HCl (P-51, in acetone) was topically applied to the human breast cancer cells-implanted area (near the front leg) every 8 hours.

Chinese White rabbits = assay: Malassezia-induced psoriasis-like lesions; format: in vivo; details: 5% aqueous solution applied twice per day; 10 days after the application
Text: COX-1 and COX-2 play a very important role in animal immune-responses. NSAIAs inhibite COX-1 and COX-2. The pro-drugs of NSAIAs in this invention may be very useful for treating psoriasis, discoid lupus erythematosus, systemic lupus erythematosus (SLE), and other autoimmune diseases. Heavy suspensions of Malassezia [Rosenberg, E. W., et al., Mycopathologia, 72, 147-154 (1980)] were applied to the shaved skin on the backs of the Chinese white rabbits (n=4×6) twice (at 7 am and 7 pm) per day for 2 weeks, lesions similar to psoriasis resulted.

[4] = 4 hours after 20% P-2 in 1 ml ethanol on about 5 cm^2 of rat back

Q: With CC(=O)O.O=C(Cc1ccccc1Nc1c(Cl)cccc1Cl)OCCCN1CCCCC1 [P-2, 1-piperidinepropyl 2[(2,6-dichlorophenyl)amino]benzene acetate.AcOH] as the molecule, how does the “Brain level of prodrug or metabolite” value [1, 4] read?
A: Its value is 25 ± 6 µg/g.

Q: What about the “Kidney level of prodrug or metabolite” value [1, 4] of the same molecule?
A: Its value is 20 ± 6 µg/g.

Q: And the “Liver level of prodrug or metabolite” value [1, 4]?
A: The value was 22 ± 8 µg/g.

Q: And the “Plasma level of prodrug or metabolite” value [1, 4]?
A: The value was 40000 ± 10000 ng/mL.

Q: And the “Weight of nude mice” value [2]?
A: The value was 22 ± 2.

Q: And the “Weight of nude mice” value [3]?
A: The value was 22 ± 2.

Q: Which “Weight of nude mice” value [3] does the source give for CC(=O)O.CCN(CC)CCOC(=O)Cc1c(C)n(C(=O)c2ccc(Cl)cc2)c2ccc(OC)cc12 [P-11, diethylaminoethyl 1-(p-chlorobenzoyl)-5-methoxy-2-methylindole 3-acetate.AcOH] here?
A: Its value is 21 ± 2.

Q: With CC(=O)O.CCN(CC)CCOC(=O)Cc1ccc(C(=O)c2ccc(C)cc2)n1C [P-13, diethylaminoethyl 1-methyl-5-(4-methylbenzoyl)-1H-pyrrole-2-acetate.AcOH] as the molecule, how does the “Weight of nude mice” value [2] read?
A: Its value is 21 ± 2.

Q: And the Psoriasis-like lesions (Chinese White rabbits)?
A: Its Psoriasis-like lesions is “the lesions were resolved”.

Q: Which Psoriasis-like lesions (Chinese White rabbits) does the source give for CC(=O)O.CCN(CC)CCOC(=O)Cc1cn(-c2ccccc2)nc1-c1ccc(Cl)cc1 [P-22, diethylaminoethyl 3-(4-chlorophenyl)-1-phenyl-1H-pyrazole-4-acetate.AcOH] here?
A: Its Psoriasis-like lesions is “the lesions were resolved”.

Q: With CC(=O)O.O=C(OCCCN1CCCC1)c1ccccc1Nc1cccc(C(F)(F)F)c1 [P-48] as the molecule, how does the “Weight of nude mice” value [3] read?
A: Its value is 22 ± 3.

Q: With CN(C)CCCC(=O)OC1=C(C(=O)Nc2nccs2)N(C)S(=O)(=O)c2ccccc21.Cl [P-52, N-(2-thiazoyl)-4-N,N-dimethylaminobutyryloxy-2-methyl-2H,1,2-benzothiazine-3-car boxamide 1,1-dioxide.HCl] as the molecule, how does the Tumor size ([2]; day 30, about 30 μl of 5% (1.5 mg) topically every 8 hours from day 7) read?
A: The Tumor size was 690 ± 250 mm^3.

Q: With CC(C(=O)O)c1cccc(C(=O)c2ccccc2)c1 (stereo not shown) [ketoprofen, reference compound] as the molecule, how does the “Drug found in rat tissues or plasma after topical application of the parent drug itself” value ([1]; 4 hours after 20% parent drug in 1 ml ethanol on about 5 cm^2 of rat back, blood, liver, kidney, brain) read?
A: The value was “None of these drugs was found”.
